We go through eight molecules from US10835466B2, “Wrinkle ameliorating agent” (POLA CHEMICAL INDUSTRIES, INC., priority 2016, dated 2020).

The subject of the experiment is wrinkles of the outer corners of the eyes. Description: Test of wrinkle improvement effect (skin replica shadow image analysis after 8 weeks of application). The experiment is classed as in vivo, women. The following applies: for Wrinkle improvement Improvement rate (%): applied to outer corners of the eyes twice a day for 8 weeks; for Wrinkle improvement Evaluation: twice a day for 8 weeks, class of the improvement rate. On the procedure: The cosmetics (Examples 1-7, Comparative Example, and Reference Examples) according to Table 1 were prepared respectively in a conventional manner. With regard to each of the prepared cosmetics, the wrinkle improvement effect was evaluated by the following method. In other words, 45 women (40 to 60 years old) who were concerned about wrinkles of the outer corners of the eyes were divided into 9 groups of 5 persons. To each group, any one of the cosmetics of Examples 1 to 7, Comparative Example, and Reference Examples was handed over, which was applied by them to the outer corners of the eyes twice a day in the morning and evening continuously for 8 weeks. Before and after the test, an impression of the skin surface profile was taken in a conventional manner to produce the respective replicas. As the base material for the replica, that for a white replica not transmitting light was used. […] The distribution of brightness in the shadow image was determined, and the brightness equal to or higher than the median value of the brightness was transformed to the maximum brightness, and the brightness below the median value was transformed to the brightness 0 so that binarization is performed according to the borderline of the median value of the brightness. Then the area rate of the shadow portion (portion with the brightness 0) was measured and the wrinkle improvement rate was calculated based on the following expression. Wrinkle improvement rate (%)=(Area rate of shadow portion before test−Area rate of shadow portion after test)/(Area rate of shadow portion before test)×100

Setting [1] is: cosmetic of Table 1 with 0.01% by mass compound (Examples 3 and 5), average of group of 5 women.
Where [2] appears, read: cosmetic of Table 1 with 0.01% by mass compound (Examples 3 and 5).
The mark [3] stands for this setting: cosmetic of Table 1 with 1% by mass compound, average of group of 5 women (40 to 60 years old).
The mark [4] stands for this setting: cosmetic of Table 1 with 1% by mass compound.

Structures are written as SMILES. Where a name gives a salt, the structure may show the parent alone.

Consider `NCC1CCC(C(=O)c2ccc(CCC(=O)O)cc2)CC1` (centres unmarked) [Compound 1, 3-[p-(4-aminomethylcyclohexylcarbonyl)phenyl]propionic acid], for which the “Wrinkle improvement Improvement rate (%)” value was found to be 6.3% under setting [1] and 12% under setting [3]. For the same molecule, the “Wrinkle improvement Evaluation” value is, setting by setting: under setting [2], “A (5% or more and less than 10%)”; under setting [4], “AA (The improvement rate is 10% or more)”.

With `CCCCCCOC(=O)CCc1ccc(C(=O)C2CCC(CN)CC2)cc1` (centres unmarked) [Compound 2, hexyl 3-[p-(4-aminomethylcyclohexylcarbonyl)phenyl]propionate], the “Wrinkle improvement Improvement rate (%)” value under setting [3] is 8.2%. Also, the “Wrinkle improvement Evaluation” value under setting [4] was “A (5% or more and less than 10%)”.

As for `NCC1CCC(C(=O)c2ccc(CCCO)cc2)CC1` (centres unmarked) [Compound 3, 3-[p-(4-aminomethylcyclohexylcarbonyl)phenyl]propanol], the “Wrinkle improvement Improvement rate (%)” value reads like this: under setting [1], 5.6%; under setting [3], 9.3%. For the same molecule, the “Wrinkle improvement Evaluation” value is “A (5% or more and less than 10%)” under setting [2]; “A (5% or more and less than 10%)” under setting [4].

As to `CCCCCC(=O)OCCCc1ccc(C(=O)C2CCC(CN)CC2)cc1` (centres unmarked) [Compound 4, 3-[p-(4-aminomethylcyclohexylcarbonyl)phenyl]propyl hexanoate], the “Wrinkle improvement Improvement rate (%)” value under setting [3] came out at 8.3%. Also, under setting [4], the “Wrinkle improvement Evaluation” value is “A (5% or more and less than 10%)”.

`CCCCCC(=O)OCC(C)Cc1ccc(C(=O)C2CCC(CN)CC2)cc1` (centres unmarked) [Compound 5, 2-methyl-3-[p-(4-aminomethylcyclohexylcarbonyl)phenyl]propyl hexanoate]: the “Wrinkle improvement Improvement rate (%)” value under setting [3] is given as 6.5%. Besides, under setting [4], the “Wrinkle improvement Evaluation” value is “A (5% or more and less than 10%)”.

Turning to `NCC1CCC(C(=O)c2ccc(CCC(=O)O)cc2)CC1` (centres unmarked) [Hydrochloride salt of Compound 1, 3-[p-(4-aminomethylcyclohexylcarbonyl)phenyl]propionic acid], the “Wrinkle improvement Improvement rate (%)” value under setting [3] worked out at 12.2%. Moreover, under setting [4], the “Wrinkle improvement Evaluation” value is “AA (The improvement rate is 10% or more)”.

In the case of `CNC(=O)[C@H]1CC[C@H](CN)CC1.Cl` [Tranexamic acid methylamide hydrochloride, reference compound], under setting [3], the “Wrinkle improvement Improvement rate (%)” value was found to be 3.6%. Further, under setting [4], the “Wrinkle improvement Evaluation” value is “B (less than 5%)”.

With `NC[C@H]1CC[C@H](C(=O)O)CC1` [Tranexamic acid, reference compound], the “Wrinkle improvement Improvement rate (%)” value under setting [3] is on record as 3.2%. Further, the “Wrinkle improvement Evaluation” value under setting [4] is listed as “B (less than 5%)”.
